In patent publication US20120132797A1, “MEANS AND METHODS FOR DIAGNOSING THYROID DISORDERS” (BASF SE, priority 2009, published 2012):
Where “and” joins values, the source holds several entries; their conditions need not be identical. Identical values can stand only once.

System: Wistar (Crl:WI(Han)) rats
Assay: Mass spectrometry-based plasma metabolite profiling of rats treated with known inducers of thyroid function impairment
Assay type: in vivo, rat
Details: ratio of group medians vs controls
Summary of the method: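 Rats aged 10-11 weeks, 5/sex/dose vs 10/sex controls, dosed at low and high levels; retro-orbital plasma taken under isoflurane on days 7, 14 and 28 after 16-20 h fast. Polar and non-polar fractions profiled by GC-MS (derivatised) and LC-MS/MS (MRM plus full scan), normalised to pool samples; Welch t-test by sex and day gives p-values and median ratios.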

[1] = female rats, fh7 (study day 7), Table 1
[2] = female rats, fh14 (study day 14), Table 1
[3] = female rats, fh28 (study day 28), Table 1
[4] = male rats, mh7 (study day 7), Table 2
[5] = male rats, mh14 (study day 14), Table 2
[6] = male rats, mh28 (study day 28), Table 2
[7] = female rats, fh7 (study day 7), Table 3
[8] = female rats, fh14 (study day 14), Table 3
[9] = female rats, fh28 (study day 28), Table 3

SMILES: S=C1NCCN1 [Ethylenethiourea]
- 5-O-Methylsphingosine [1]: 1.29 and 1.20
- Asparagine [1]: 1.06 and 1.35
- Behenic acid (C22:0) [1]: 1.48 and 1.27
- Citrate [1]: 0.89 and 0.78
- Docosahexaenoic acid (C22:cis[4,7,10,13,16]6) [1]: 1.12 and 1.29
- Glycine [1]: 1.21 and 1.09
- Ketoleucine [1]: 0.93 and 0.84
- Lysophosphatidylcholine (C18:2) [1]: 1.08
- Phosphatidylcholine (C16:1, C18:2) [1]: 1.43 and 1.26
- Phosphatidylcholine (C18:2, C20:4) [1]: 1.09 and 1.02
- Pyruvate [1]: 1.29 and 0.74
- Tricosanoic acid (C23:0) [1]: 1.38 and 1.44
- erythro-Sphingosine [1]: 1.46 and 1.39
- threo-Sphingosine [1]: 1.35 and 1.58
- Sphingomyelin (d18:1, C16:0) (female rats, fh7 (study day 7), Table 1, first listing): 1.71 and 1.62
- Sphingomyelin (d18:1, C16:0) (female rats, fh7 (study day 7), Table 1, second listing): 1.29 and 1.46
- 5-O-Methylsphingosine [2]: 1.56 and 1.59
- Asparagine [2]: 1.31 and 1.27
- Behenic acid (C22:0) [2]: 1.29 and 1.69
- Citrate [2]: 0.85 and 0.86
- Docosahexaenoic acid (C22:cis[4,7,10,13,16]6) [2]: 1.45 and 1.24
- Glycine [2]: 1.24 and 1.18
- Ketoleucine [2]: 0.84 and 0.82
- Lysophosphatidylcholine (C18:2) [2]: 1.19 and 1.17
- Phosphatidylcholine (C16:1, C18:2) [2]: 1.43 and 1.54
- Phosphatidylcholine (C18:2, C20:4) [2]: 1.15 and 1.09
- Pyruvate [2]: 0.79 and 1.14
- Tricosanoic acid (C23:0) [2]: 1.52 and 1.30
- erythro-Sphingosine [2]: 1.71 and 1.98
- threo-Sphingosine [2]: 1.47 and 1.61
- Sphingomyelin (d18:1, C16:0) (female rats, fh14 (study day 14), Table 1, first listing): 1.43 and 1.55
- Sphingomyelin (d18:1, C16:0) (female rats, fh14 (study day 14), Table 1, second listing): 1.06 and 1.34
- 5-O-Methylsphingosine [3]: 1.63 and 1.59
- Asparagine [3]: 1.26 and 0.84
- Behenic acid (C22:0) [3]: 1.69 and 1.27
- Citrate [3]: 0.70 and 0.91
- Docosahexaenoic acid (C22:cis[4,7,10,13,16]6) [3]: 1.22 and 1.11
- Glycine [3]: 1.32 and 1.01
- Ketoleucine [3]: 0.88 and 0.74
- Lysophosphatidylcholine (C18:2) [3]: 1.10 and 1.23
- Phosphatidylcholine (C16:1, C18:2) [3]: 1.41 and 1.30
- Phosphatidylcholine (C18:2, C20:4) [3]: 1.06 and 1.04
- Pyruvate [3]: 0.69 and 1.04
- Tricosanoic acid (C23:0) [3]: 1.42 and 1.05
- erythro-Sphingosine [3]: 1.51 and 1.35
- threo-Sphingosine [3]: 1.51 and 1.26
- Sphingomyelin (d18:1, C16:0) (female rats, fh28 (study day 28), Table 1, first listing): 1.70 and 1.38
- Sphingomyelin (d18:1, C16:0) (female rats, fh28 (study day 28), Table 1, second listing): 1.16 and 1.07
- 3-O-Methylsphingosine [4]: 2.26
- 5-O-Methylsphingosine [4]: 2.36
- 14-Methyl-Pentadecanoic acid [4]: 0.98
- 17-Methyloctadecanoic acid [4]: 0.97
- Arginine [4]: 1.24
- Cholesterol [4]: 1.74
- Citrate [4]: 0.86
- Dihom-gamma-Linolenic acid (C20:cis[8,11,14]3) [4]: 2.34
- Lignoceric acid (C24:0) [4]: 1.94
- Phytosphingosine [4]: 1.53
- Sphingomyelin (d18:1, C16:0) [4]: 1.65
- Tricosanoic acid (C23:0) [4]: 1.67
- alpha-Tocopherol [4]: 2.58
- erythro-Sphingosine [4]: 2.06
- threo-Sphingosine [4]: 2.05
- Glutamate (male rats, mh7 (study day 7), Table 2, first listing): 1.07
- Glutamate (male rats, mh7 (study day 7), Table 2, second listing): 1.15
- 3-O-Methylsphingosine [5]: 2.34
- 5-O-Methylsphingosine [5]: 2.37
- 14-Methyl-Pentadecanoic acid [5]: 0.96
- 17-Methyloctadecanoic acid [5]: 0.83
- Arginine [5]: 1.30
- Cholesterol [5]: 2.25
- Citrate [5]: 0.81
- Dihom-gamma-Linolenic acid (C20:cis[8,11,14]3) [5]: 1.84
- Lignoceric acid (C24:0) [5]: 1.66
- Phytosphingosine [5]: 1.67
- Sphingomyelin (d18:1, C16:0) [5]: 1.69
- Tricosanoic acid (C23:0) [5]: 2.01
- alpha-Tocopherol [5]: 2.99
- erythro-Sphingosine [5]: 2.06
- threo-Sphingosine [5]: 2.03
- Glutamate (male rats, mh14 (study day 14), Table 2, first listing): 0.73
- Glutamate (male rats, mh14 (study day 14), Table 2, second listing): 0.82
- 3-O-Methylsphingosine [6]: 2.91
- 5-O-Methylsphingosine [6]: 2.78
- 14-Methyl-Pentadecanoic acid [6]: 0.77
- 17-Methyloctadecanoic acid [6]: 0.89
- Arginine [6]: 1.20
- Cholesterol [6]: 1.98
- Citrate [6]: 0.64
- Dihom-gamma-Linolenic acid (C20:cis[8,11,14]3) [6]: 2.68
- Lignoceric acid (C24:0) [6]: 2.07
- Phytosphingosine [6]: 2.17
- Sphingomyelin (d18:1, C16:0) [6]: 1.79
- Tricosanoic acid (C23:0) [6]: 2.39
- alpha-Tocopherol [6]: 3.13
- erythro-Sphingosine [6]: 2.29
- threo-Sphingosine [6]: 2.05
- Glutamate (male rats, mh28 (study day 28), Table 2, first listing): 0.70
- Glutamate (male rats, mh28 (study day 28), Table 2, second listing): 0.77

SMILES: Cc1c[nH]nc1C.O=P(O)(O)O [3,4-Dimethylpyrazolphosphat]
- Arachidonic acid (C20:cis[58,11,14]4) [7]: 1.36
- Behenic acid (C22:0) [7]: 1.31
- Cholesterol [7]: 1.24
- Cysteine [7]: 0.78
- Docosahexaenoic acid (C22:cis[4,7,10,13,16,19]6) [7]: 2.15
- Dodecanol [7]: 1.06
- Eicosanoic acid (C20:0) [7]: 1.14
- Glycerol phosphate [7]: 1.29
- Heptadecanoic acid (C17:0) [7]: 1.30
- Linoleic acid (C18:cis[9,12]2) [7]: 1.29
- Nervonic acid C24:(cis[15]1) [7]: 1.60
- Palmitic acid (C16:0) [7]: 1.34
- Sphingomyelin (d18:1, C16:0) [7]: 1.28
- Stearic acid (C18:0) [7]: 1.30
- Threonic acid [7]: 1.51
- dihomo-gamma-Linolenic acid (C20:cis[8,11,14]3) [7]: 1.36
- erythro-Sphingosine [7]: 1.40
- gamma-Linolenic acid (C18:cis[6,9,12]3) [7]: 1.17
- myo-Inositol-2-phosphate [7]: 1.26
- threo-Sphingosine [7]: 1.27
- Arachidonic acid (C20:cis[58,11,14]4) [8]: 1.75
- Behenic acid (C22:0) [8]: 1.82
- Cholesterol [8]: 1.73
- Cysteine [8]: 1.29
- Docosahexaenoic acid (C22:cis[4,7,10,13,16,19]6) [8]: 2.19
- Dodecanol [8]: 1.17
- Eicosanoic acid (C20:0) [8]: 1.61
- Glycerol phosphate [8]: 1.69
- Heptadecanoic acid (C17:0) [8]: 1.34
- Linoleic acid (C18:cis[9,12]2) [8]: 1.29
- Nervonic acid C24:(cis[15]1) [8]: 1.60
- Palmitic acid (C16:0) [8]: 1.34
- Sphingomyelin (d18:1, C16:0) [8]: 1.35
- Stearic acid (C18:0) [8]: 1.71
- Threonic acid [8]: 1.17
- dihomo-gamma-Linolenic acid (C20:cis[8,11,14]3) [8]: 1.80
- erythro-Sphingosine [8]: 1.90
- gamma-Linolenic acid (C18:cis[6,9,12]3) [8]: 1.87
- myo-Inositol-2-phosphate [8]: 1.78
- threo-Sphingosine [8]: 1.72
- Arachidonic acid (C20:cis[58,11,14]4) [9]: 1.67
- Behenic acid (C22:0) [9]: 1.43
- Cholesterol [9]: 1.69
- Cysteine [9]: 1.00
- Docosahexaenoic acid (C22:cis[4,7,10,13,16,19]6) [9]: 2.25
- Dodecanol [9]: 1.26
- Eicosanoic acid (C20:0) [9]: 1.38
- Glycerol phosphate [9]: 1.55
- Heptadecanoic acid (C17:0) [9]: 1.39
- Linoleic acid (C18:cis[9,12]2) [9]: 1.44
- Nervonic acid C24:(cis[15]1) [9]: 1.78
- Palmitic acid (C16:0) [9]: 1.55
- Sphingomyelin (d18:1, C16:0) [9]: 1.58
- Stearic acid (C18:0) [9]: 1.62
- Threonic acid [9]: 1.36
- dihomo-gamma-Linolenic acid (C20:cis[8,11,14]3) [9]: 1.86
- erythro-Sphingosine [9]: 1.54
- gamma-Linolenic acid (C18:cis[6,9,12]3) [9]: 1.96
- myo-Inositol-2-phosphate [9]: 1.91
- threo-Sphingosine [9]: 1.58
